This assay concerns CD2F1 mice, L1210 leukemia ip, survival T/C. The assay is described as follows: NCI In Vivo Anticancer Drug Screen. Data for tumor model L1210 Leukemia (intraperitoneal) in CD2F1 (CDF1) mice. As to conditions: higher = longer survival. A digest of the protocol: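 Each value reflects a quotient of treated over vehicle control outcomes in mice with a transplanted tumor.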
Setting [1] is: endpoint: mean survival time, dose: 100.0 mg/kg/injection, schedule: Q01DX009 (ip), vehicle: saline with Tween-80.

Structures are written as SMILES. “And” between values parts separate entries of the source, which are not always exact repeats. Equal values may be shown once. Inconclusive results and toxic doses are left out.

On to `NCCCNCCCCNC(=O)C(O)NC(=O)CCCCCCN=C(N)N` (centres undefined), for which the T/C is 123 % of control (endpoint: median survival time, dose: 0.19 mg/kg/injection, schedule: Q01DX005 (iv), vehicle: saline); 185 % of control and 231 % of control (endpoint: median survival time, dose: 0.39 mg/kg/injection, schedule: Q01DX009 (ip), vehicle: saline); 198 % of control (endpoint: median survival time, dose: 0.75 mg/kg/injection, schedule: Q01DX009 (ip), vehicle: saline); 153 % of control (endpoint: median survival time, dose: 0.78 mg/kg/injection, schedule: Q01DX005 (iv), vehicle: other); 156 % of control (endpoint: median survival time, dose: 0.78 mg/kg/injection, schedule: Q01DX005 (iv), vehicle: saline); 213 % of control (endpoint: median survival time, dose: 0.78 mg/kg/injection, schedule: Q01DX009 (ip), vehicle: other). The T/C (endpoint: median survival time, dose: 1.3 mg/kg/injection, schedule: Q01DX005 (iv), vehicle: other) is 153 % of control; the T/C (endpoint: median survival time, dose: 1.3 mg/kg/injection, schedule: Q01DX005 (iv), vehicle: saline) was 161 % of control; the T/C (endpoint: median survival time, dose: 1.5 mg/kg/injection, schedule: Q01DX009 (ip), vehicle: saline) is 220 % of control; the T/C (endpoint: median survival time, dose: 1.56 mg/kg/injection, schedule: Q01DX005 (iv), vehicle: saline) is 160 % of control; the T/C (endpoint: median survival time, dose: 1.56 mg/kg/injection, schedule: Q01DX009 (ip), vehicle: other) is 213 % of control; the T/C (endpoint: median survival time, dose: 2.16 mg/kg/injection, schedule: Q01DX005 (iv), vehicle: other) is 171 % of control. For the same molecule, the T/C is, setting by setting: (endpoint: median survival time, dose: 2.16 mg/kg/injection, schedule: Q01DX005 (iv), vehicle: saline) 165 % of control; (endpoint: median survival time, dose: 3.0 mg/kg/injection, schedule: Q01DX009 (ip), vehicle: saline) 220 % of control; (endpoint: median survival time, dose: 3.12 mg/kg/injection, schedule: Q01DX005 (iv), vehicle: saline) 172 % of control; (endpoint: median survival time, dose: 3.12 mg/kg/injection, schedule: Q01DX009 (ip), vehicle: other) 204 % of control; (endpoint: median survival time, dose: 3.6 mg/kg/injection, schedule: Q01DX005 (iv), vehicle: other) 176 % of control; (endpoint: median survival time, dose: 3.6 mg/kg/injection, schedule: Q01DX005 (iv), vehicle: saline) 164 % of control. In addition, the T/C is, setting by setting: (endpoint: median survival time, dose: 4.4 mg/kg/injection, schedule: Q01DX009 (ip), vehicle: saline) 221 % of control and 225 % of control and 230 % of control; (endpoint: median survival time, dose: 4.5 mg/kg/injection, schedule: Q01DX009 (ip), vehicle: saline) 219 % of control; (endpoint: median survival time, dose: 6.0 mg/kg/injection, schedule: Q01DX005 (iv), vehicle: other) 175 % of control; (endpoint: median survival time, dose: 6.0 mg/kg/injection, schedule: Q01DX005 (iv), vehicle: saline) 172 % of control; (endpoint: median survival time, dose: 6.0 mg/kg/injection, schedule: Q01DX009 (ip), vehicle: saline) 219 % of control; (endpoint: median survival time, dose: 6.25 mg/kg/injection, schedule: Q01DX005 (iv), vehicle: saline) 430 % of control. The T/C was 225 % of control (endpoint: median survival time, dose: 6.25 mg/kg/injection, schedule: Q01DX009 (ip), vehicle: other); 163 % of control (endpoint: median survival time, dose: 7.88 mg/kg/injection, schedule: Q01DX005 (sc), vehicle: water); 180 % of control (endpoint: median survival time, dose: 10.0 mg/kg/injection, schedule: Q01DX005 (iv), vehicle: saline); 223 % of control (endpoint: median survival time, dose: 12.0 mg/kg/injection, schedule: Q01DX009 (ip), vehicle: saline); 242 % of control (endpoint: median survival time, dose: 12.5 mg/kg/injection, schedule: Q01DX009 (ip), vehicle: other); 173 % of control and 179 % of control (endpoint: median survival time, dose: 15.75 mg/kg/injection, schedule: Q01DX005 (sc), vehicle: water). Further, the T/C (endpoint: median survival time, dose: 25.0 mg/kg/injection, schedule: Q01DX009 (ip), vehicle: other) is 227 % of control; the T/C (endpoint: median survival time, dose: 31.5 mg/kg/injection, schedule: Q01DX005 (sc), vehicle: water) was 178 % of control and 182 % of control; the T/C (endpoint: median survival time, dose: 31.5 mg/kg/injection, schedule: Q03HX008 (sc), vehicle: water) is 164 % of control; the T/C (endpoint: median survival time, dose: 37.0 mg/kg/injection, schedule: Q01DX005 (sc), vehicle: water) was 183 % of control; the T/C (endpoint: median survival time, dose: 45.0 mg/kg/injection, schedule: Q01DX005 (sc), vehicle: water) was 176 % of control; the T/C (endpoint: median survival time, dose: 150.0 micrograms per hour, schedule: Q#X X048 (sc), vehicle: water) is 182 % of control. Besides, the T/C (endpoint: median survival time, dose: 150.0 micrograms per hour, schedule: Q#X X072 (sc), vehicle: water) is 182 % of control; the T/C (endpoint: median survival time, dose: 150.0 micrograms per hour, schedule: Q#X X096 (sc), vehicle: water) is 205 % of control; the T/C (endpoint: median survival time, dose: 170.0 micrograms per hour, schedule: Q#X X048 (sc), vehicle: water) is 178 % of control; the T/C (endpoint: median survival time, dose: 170.0 micrograms per hour, schedule: Q#X X072 (sc), vehicle: water) was 200 % of control; the T/C (endpoint: median survival time, dose: 200.0 micrograms per hour, schedule: Q#X X048 (sc), vehicle: water) is 110 % of control; the T/C (endpoint: median survival time, dose: 200.0 micrograms per hour, schedule: Q#X X072 (sc), vehicle: water) is 101 % of control. Also, the T/C is 114 % of control (endpoint: median survival time, dose: 200.0 micrograms per hour, schedule: Q#X X096 (sc), vehicle: water); 168 % of control (endpoint: median survival time, dose: 207.0 micrograms per hour, schedule: Q#X X048 (sc), vehicle: water); 120 % of control (endpoint: median survival time, dose: 207.0 micrograms per hour, schedule: Q#X X072 (sc), vehicle: water); 109 % of control (endpoint: median survival time, dose: 207.0 micrograms per hour, schedule: Q#X X096 (sc), vehicle: water).

With `Nc1ncnc2snnc12`, the T/C is, setting by setting: (endpoint: mean survival time, dose: 100.0 mg/kg/injection, schedule: Q01DX001 (ip), vehicle: Klucel (hydroxypropylcellulose) (HPC)) 100 % of control; (endpoint: mean survival time, dose: 200.0 mg/kg/injection, schedule: Q01DX001 (ip), vehicle: Klucel (hydroxypropylcellulose) (HPC)) 96 % of control; (endpoint: mean survival time, dose: 400.0 mg/kg/injection, schedule: Q01DX001 (ip), vehicle: Klucel (hydroxypropylcellulose) (HPC)) 100 % of control.

With `CC(CC(O)(c1ccccc1)c1ccccc1)C(F)(F)F` (centres undefined), the T/C was 100 % of control under setting [1]; 94 % of control (endpoint: mean survival time, dose: 100.0 mg/kg/injection, schedule: Q04DX003 (ip), vehicle: saline with Tween-80); 95 % of control (endpoint: mean survival time, dose: 200.0 mg/kg/injection, schedule: Q01DX009 (ip), vehicle: saline with Tween-80); 96 % of control (endpoint: mean survival time, dose: 200.0 mg/kg/injection, schedule: Q04DX003 (ip), vehicle: saline with Tween-80); 98 % of control (endpoint: mean survival time, dose: 400.0 mg/kg/injection, schedule: Q01DX009 (ip), vehicle: saline with Tween-80); 97 % of control (endpoint: mean survival time, dose: 400.0 mg/kg/injection, schedule: Q04DX003 (ip), vehicle: saline with Tween-80).

Turning to `C=CC1=NC(C)(C)CC(C)O1` (centres undefined), the T/C runs as follows: (endpoint: mean survival time, dose: 0.78 mg/kg/injection, schedule: Q01DX009 (ip), vehicle: water) 104 % of control; (endpoint: mean survival time, dose: 1.56 mg/kg/injection, schedule: Q01DX009 (ip), vehicle: water) 102 % of control; (endpoint: mean survival time, dose: 3.13 mg/kg/injection, schedule: Q01DX009 (ip), vehicle: water) 105 % of control; (endpoint: mean survival time, dose: 6.25 mg/kg/injection, schedule: Q01DX009 (ip), vehicle: water) 104 % of control; (endpoint: mean survival time, dose: 12.5 mg/kg/injection, schedule: Q01DX009 (ip), vehicle: water) 100 % of control.

`CC12CCCC(CCCO)(C1)NC(=O)C2` (centres undefined): the T/C by setting is: (endpoint: mean survival time, dose: 100.0 mg/kg/injection, schedule: Q01DX001 (ip), vehicle: saline) 101 % of control; (endpoint: mean survival time, dose: 200.0 mg/kg/injection, schedule: Q01DX001 (ip), vehicle: saline) 101 % of control; (endpoint: mean survival time, dose: 400.0 mg/kg/injection, schedule: Q01DX001 (ip), vehicle: saline) 101 % of control.

`CCCCCc1cc(/C=C2/N=C(c3ccc[nH]3)C=C2OC)[nH]c1C`: the T/C is, setting by setting: (endpoint: mean survival time, dose: 0.25 mg/kg/injection, schedule: Q01DX009 (ip), vehicle: saline with Tween-80) 92 % of control; (endpoint: mean survival time, dose: 0.5 mg/kg/injection, schedule: Q01DX009 (ip), vehicle: saline with Tween-80) 97 % of control; (endpoint: mean survival time, dose: 1.0 mg/kg/injection, schedule: Q01DX009 (ip), vehicle: saline with Tween-80) 101 % of control; (endpoint: mean survival time, dose: 2.0 mg/kg/injection, schedule: Q01DX009 (ip), vehicle: saline with Tween-80) 103 % of control; (endpoint: mean survival time, dose: 4.0 mg/kg/injection, schedule: Q01DX009 (ip), vehicle: saline with Tween-80) 92 % of control.

As for `Clc1ccc(OCc2sc3ccc(Cl)cc3c2CN2CCCCC2)cc1`, the T/C was 100 % of control (endpoint: mean survival time, dose: 25.0 mg/kg/injection, schedule: Q01DX009 (ip), vehicle: saline with Tween-80); 97 % of control (endpoint: mean survival time, dose: 50.0 mg/kg/injection, schedule: Q01DX009 (ip), vehicle: saline with Tween-80); 95 % of control under setting [1].

As to `CC1(CCCc2ccc(N(CCCl)CCCl)cc2)NC(=O)NC1=O` (centres undefined), the T/C (endpoint: mean survival time, dose: 50.0 mg/kg/injection, schedule: Q01DX009 (ip), vehicle: Klucel (hydroxypropylcellulose) (HPC)) was 114 % of control; the T/C (endpoint: mean survival time, dose: 100.0 mg/kg/injection, schedule: Q01DX009 (ip), vehicle: Klucel (hydroxypropylcellulose) (HPC)) was 93 % of control; the T/C (endpoint: mean survival time, dose: 200.0 mg/kg/injection, schedule: Q01DX009 (ip), vehicle: Klucel (hydroxypropylcellulose) (HPC)) was 86 % of control.

The record behind these values is PubChem BioAssay AID256 (DTP/NCI, 2004).
